From patent publication US20080003305A1, “PROCESS AND COMPOSITIONS FOR THE DISINFECTION OF WATERS” (BROMINE COMPOUNDS LIMITED, priority 1991, published 2008) come the findings set out here.

The test system of data set [1] is survivors in water taken from a citrus juice evaporator. The experiment in a line: Efficacy in water taken from a citrus juice evaporator; comparison to non-oxidizing biocides. Format: cell-based. The settings on record: dose 30 mg/l. How it is done: Efficacy of NH4Cl+NaOCl in Water Taken from a Citrus Juice Evaporator; Comparison to Non-Oxidizing Biocides
Water demand: higher than 30 ppm of Cl2 (out of 30 ppm Cl2) within 60 minutes.
Concentration of stock solution (NH4Cl+NaOCl): 1000 ppm.
Algicol II is a quaternary ammonium salt.

In data set [2] the test system is MOs in starch sizing mixture. The experiment in a line: Efficacy of oxidizing and non-oxidizing biocides in a starch sizing mixture (paper industry). Type of data set: cell-based. The settings on record: 30 ppm active ingredient, 60° C.; for Surviving MOs after time (hours): 4: 4 hours; for Surviving MOs after time (hours): 28: 28 hours; for Surviving MOs after time (hours): 48: 48 hours; for Surviving MOs after time (hours): 72: 72 hours. As for the experimental part: Efficacy of Oxidizing and Non-Oxidizing Biocides is a Starch Sizing Mixture (Paper Industry)
Efficacy was measured at 60° C.
NH4Br+NaOCl: stock concentration 0.1%.
Dosage: 30 ppm active ingredient.
Incubation temperature 60° C.

The subject of another data set is Pseudomonas sp. The experiment in a line: Efficacy of biocides in the presence of anti-scale and corrosion inhibiting treatment (CWC). Format: cell-based. The settings on record: dose 4 mg/l; pH 9.0; contact time 6 hours. From the text: Efficacy of Biocides in the Presence of Anti-Scale and Corrosion Inhibiting Treatment (CWC)
Stock concentration: 0.5% as Cl2
Efficacy against pseudomonas sp.

Data set [3] can be described thus: Residue as Cl2 in domestic waste containing a high concentration of amines. Format: physicochemical. The settings on record: 60 ppm. As for the experimental part: (§1) Efficacy of a Series of Biocides in Domestic Waste Containing a High Concentration of Amines
(§2) Incubation temperature: 27° C.
(§3) Stock concentration: 0.2%

For the next data set, the system named is anaer. MOs. The experiment in a line: Efficacy in domestic waste containing a high concentration of amines: anaerobic MOs. Format: cell-based. Particulars: 60 ppm; contact time 10 minutes; N as NH3 50mg/l; pH 6.10. How it is done:
as §1, §2, §3

The subject of another data set is aerob. MOs. Briefly: Efficacy in domestic waste containing a high concentration of amines: aerobic MOs. Particulars: 60 ppm; contact time 10 minutes; N as NH3 50mg/l; pH 6.10. Type of data set: cell-based. How it is done:
as §1, §2, §3

The test system of data set [4] is total aerobic viable counts. The experiment in a line: Efficacy of oxidizing biocides in water taken from a paper mill (thick stock of pulp slurry). Type of data set: cell-based. The settings on record: 15 mg/l as Cl2; 30 minutes. As for the experimental part: Efficacy of Oxidizing Biocides in Water Taken from a Paper Mill (Thick Stock of Pulp Slurry)
Microorganisms were incubated at 37° C. (total aerobic viable counts).
Concentration of stock solution: 0.1% as Cl2.

Another data set deals with fungi. The experiment in a line: Efficacy in domestic waste containing a high concentration of amines: fungi. Format: cell-based. Particulars: 60 ppm; contact time 10 minutes; N as NH3 50mg/l; pH 6.10. As for the experimental part:
as §1, §2, §3

For data set [5], the system named is biofouling and growth of algae. The experiment in a line: Field experiment, cooling tower 1. How it is done: • Cooling tower; contained volume 1000 m^3 • Circulation rate 500 m^3/h • Scale and corrosion inhibitor: CWC: 100 mg/l
The tower was controlled on low level (0.6-1.2 kg/day) of BCDMH feed. Use of BCDMH was effective as long as make-ups were softened in ion-exchangers.
The system was shock-fed with NH4Br+NaOCl. Overall dosage: 75 liters NaOCl (10%) 12.6 kg NH4Br. The mixture was fed during 1.5 hours.
A slug dose of 25 liters NaOCl (10% as Cl2) (+4.2 kg NH4Br) was then fed to the cooling tower once in two to three days. […] A measurable residue of 0.6-0.4 ppm (as total chlorine) was measured in the water 24 and 48 hours after feeding the mixture.

Data set [6] concerns biofilm, slime and algae growth. Briefly: Field experiment, cooling tower 2 (corn processing plant). Particulars: BCDMH 1.50-2.26 kg/day daily. How it is done: • Corn processing plant. • Contained volume: 20 m^3 • Circulation rate: 300 m^3/h • pH: 7.5-8.0 • Water temperature: 36° C.-57° C.
This tower was treated with BCDMH (1.50-2.26 kg/day) daily. Due to a very high organic load in the water, growth of biofilm was very fast.

Turning to `N#CSCSC#N` [MBT], in [1] (1 hour), the “Survivors after time (hours): 1” value was 1 × 10^6 cfu/ml. In addition, the “Survivors after time (hours): 24” value in data set [1] (24 hours) was 1 × 10^3 cfu/ml. Moreover, in [1] (7 days), the “Survivors after time: 7 days” value is on record as 8 × 10^2 cfu/ml. In data set [2], the “Surviving MOs after time (hours): 4” value is reported as 9 × 10^4 cfu/ml, the “Surviving MOs after time (hours): 28” value is on record as 4 × 10^4 cfu/ml, the “Surviving MOs after time (hours): 48” value is 2 × 10^4 cfu/ml and the “Surviving MOs after time (hours): 72” value is reported as 2 × 10^4 cfu/ml.

On to `Cn1sccc1=O` [MIT], for which, in [2], the “Surviving MOs after time (hours): 4” value is 2 × 10^4 cfu/ml, the “Surviving MOs after time (hours): 28” value was 2 × 10^3 cfu/ml, the “Surviving MOs after time (hours): 48” value is listed as 2 × 10^3 cfu/ml and the “Surviving MOs after time (hours): 72” value is listed as 1 × 10^3 cfu/ml.

With `N#CC(Br)(Br)C(N)=O` [DBNPA], in the data set on Pseudomonas sp., the “Survivors in CWC (100 mg/l)” value is reported as 4 × 10^6 and the Survivors in buffer came to 0. The “Residue free as Cl2 after 10 minutes” value in data set [3] (free) is on record as 0 (0). The “Residue (total) as Cl2 after 10 minutes” value in data set [3] (total) is 0 (0). Also, the “Surviving MOs after 10 minutes anaer.” value with anaer. MOs is recorded as 5 × 10^5 cfu/ml. Further, in the data set with aerob. MOs, the “Surviving MOs after 10 minutes aerob.” value is recorded as 2 × 10^6 cfu/ml. In addition, in data set [4], the “Viable counts after time (minutes): 30” value was 2 × 10^3 cfu/ml. In [2], the “Surviving MOs after time (hours): 4” value is reported as 3 × 10^4 cfu/ml, the “Surviving MOs after time (hours): 28” value is recorded as 2 × 10^5 cfu/ml, the “Surviving MOs after time (hours): 48” value is 2 × 10^5 cfu/ml and the “Surviving MOs after time (hours): 72” value is listed as 1 × 10^5 cfu/ml. The “Surviving MOs after 10 minutes fungi” value with fungi is 0 cfu/ml.

For `CC1(C)C(=O)N(Cl)C(=O)N1Br` [BCDMH], in the data set with Pseudomonas sp., the “Survivors in CWC (100 mg/l)” value is 3 × 10^5 and the Survivors in buffer was 0. Further, in data set [5] (BCDMH 4-6 kg/day, CWC (100 mg/l of phosphonate)), the “prevention of biofouling and growth of algae” value is “did not suffice to prevent biofouling and growth of algae”. The “control of the tower” value in data set [5] (BCDMH feed 0.6-1.2 kg/day, make-ups softened in ion-exchangers) is given as “effective”. Besides, in data set [6], the “control of daily grown films” value is on record as “effective in controlling the daily grown films” and the “efficacy against heavy slimes covering the cooling tower” value is reported as “not effective against heavy slimes”.
